Results as given in patent US20070149487A1, “Antiviral Compositions and Methods” (priority 2005, published 2007).

Tests used:
[1] = system: human SARS-CoV Toronto-2 strain; assay type: cell-based
[2] = system: Vero E6 cells

SMILES	EC50 [1] [µM]	Average Inhibition (%) at 32 μM [1] [%]	CC50 [2] [µM]	toxicity to normal cells in cell viability assays ([2]; at 23 μM)
CS(=O)(=O)c1ccc2c(c1)nc(C(F)(F)F)n2C1CCNCC1 [CS02]	> 100	0	> 100	
O=C(NN=C1C(=O)Nc2ccccc21)NC1CCS(=O)(=O)C1 (racemic) [CS07]	> 100	1	> 100	
NC(c1cc(C(F)(F)F)cc(C(F)(F)F)c1)c1cc(C(F)(F)F)cc(C(F)(F)F)c1 [CS03]	> 100	0	> 100	
CN1CCc2c(sc3c2C(=O)NC(c2ccc(O)c(O)c2)N3)C1 (stereo not shown) [CS01]	> 100	0	> 100	
Cc1ccc([N+](=O)[O-])cc1N1C(=O)c2ccc(C(=O)O)cc2C1=O [CS12]	> 100	13	> 100	
CCN1C(=O)c2cccc3c(NC(=O)c4ccc([N+](=O)[O-])s4)ccc1c23 [CS05]	> 100	0	10	
CC(=O)Nc1ccc2c(c1)[C@H]1C=CC[C@@H]1[C@H](c1ccc([N+](=O)[O-])cc1)N2 [CS08]	> 100	17	> 100	
O=C(O)c1ccc(N=Cc2c(O)ccc3oc4c(c23)CCCC4)cc1 [CS11]	23	66	76	not toxic
O=C(O)c1ccc(C2Nc3c(Cl)cc(Cl)c(Cl)c3C3C=CCC32)cc1 (stereo not shown) [CS09]	> 100	13	85	
N=C1C(=Cc2ccc3c(c2)OCO3)C(=O)C=C2SC(C(F)(F)F)=NN12 [CS10]	> 100	14	67	
CN1CCC(c2nc(-c3ccc(Cl)cc3)cc(C(F)(F)F)n2)CC1 [CS06]	> 100	0	95	
CC(=O)Nc1ccc(N2C(=O)CC(N3CC(C)OC(C)C3)C2=O)cc1 (stereo not shown) [CS04]	> 100	4	> 100	
